Test results reported in patent publication US20140128352A1, “COMPOUNDS AND METHODS FOR MODULATING MITOCHONDRIAL METABOLISM AND REACTIVE OXYGEN SPECIES PRODUCTION” (Buck Institute for Research on Aging, priority 2012, published 2014).
Like-named read-outs stand apart in the source and are kept apart here.

Tests used:
[1] = system: ubiquinone binding site of complex I (IQ); assay: High-throughput screen: ROS production from ubiquinone binding site of complex I (IQ), isolated skeletal muscle mitochondria; type: biochemical, rat; conditions: for % Reduction in ROS production (IQ): Table 2, 5 mM succinate, compounds 2.5 μM, percent change from DMSO, positive control −100%; for IQ: percent change in ROS from DMSO controls
[2] = molecular target: T1, flavin binding site of complex I (IF) (Rattus norvegicus, UniProt Q5XIH3); assay: High-throughput screen: ROS production from flavin binding site of complex I (IF); type: biochemical; conditions: percent change in ROS from DMSO controls; for inhibition at 2.5 µM: Table 7, read-out: IF
T1 construct: freshly isolated muscle mitochondria were assayed; from tissue; host or cells: rat skeletal muscle mitochondria (Wistar, Harlan Laboratories)
T1 sequence (Q5XIH3 21-464 limits assumed, one chain of several): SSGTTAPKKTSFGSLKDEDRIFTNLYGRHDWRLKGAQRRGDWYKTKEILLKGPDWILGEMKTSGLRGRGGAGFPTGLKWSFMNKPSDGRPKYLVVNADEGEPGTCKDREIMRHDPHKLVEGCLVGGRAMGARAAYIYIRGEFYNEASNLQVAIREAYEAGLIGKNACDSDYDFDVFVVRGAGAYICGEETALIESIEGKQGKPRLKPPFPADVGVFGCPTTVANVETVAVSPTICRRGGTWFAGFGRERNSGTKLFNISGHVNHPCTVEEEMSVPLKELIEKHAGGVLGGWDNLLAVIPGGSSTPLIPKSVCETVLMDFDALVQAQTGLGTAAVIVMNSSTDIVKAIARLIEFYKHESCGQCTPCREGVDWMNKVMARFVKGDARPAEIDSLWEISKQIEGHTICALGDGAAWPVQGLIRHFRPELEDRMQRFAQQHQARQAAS

[3] = molecular target: T2, outer ubiquinone binding site of complex III (IIIQO) (Rattus norvegicus, UniProt P00159+P20788); assay: High-throughput screen: ROS production from outer ubiquinone binding site of complex III (IIIQO); type: biochemical; conditions: percent change in ROS from DMSO controls; for IIIQO: Table 8
T2 construct: freshly isolated muscle mitochondria were assayed; from tissue; host or cells: rat skeletal muscle mitochondria (Wistar, Harlan Laboratories)

[4] = molecular target: T3, succinate dehydrogenase/complex II (SDH) (Rattus norvegicus, UniProt P21913+Q641Z9+Q6PCT8+Q920L2); assay: High-throughput screen: ROS production from succinate dehydrogenase/complex II (SDH); type: biochemical; conditions: percent change in ROS from DMSO controls; for inhibition at 2.5 µM: Table 7
T3 construct: freshly isolated muscle mitochondria were assayed; from tissue; host or cells: rat skeletal muscle mitochondria (Wistar, Harlan Laboratories)
T3 sequence (Q920L2 35-656): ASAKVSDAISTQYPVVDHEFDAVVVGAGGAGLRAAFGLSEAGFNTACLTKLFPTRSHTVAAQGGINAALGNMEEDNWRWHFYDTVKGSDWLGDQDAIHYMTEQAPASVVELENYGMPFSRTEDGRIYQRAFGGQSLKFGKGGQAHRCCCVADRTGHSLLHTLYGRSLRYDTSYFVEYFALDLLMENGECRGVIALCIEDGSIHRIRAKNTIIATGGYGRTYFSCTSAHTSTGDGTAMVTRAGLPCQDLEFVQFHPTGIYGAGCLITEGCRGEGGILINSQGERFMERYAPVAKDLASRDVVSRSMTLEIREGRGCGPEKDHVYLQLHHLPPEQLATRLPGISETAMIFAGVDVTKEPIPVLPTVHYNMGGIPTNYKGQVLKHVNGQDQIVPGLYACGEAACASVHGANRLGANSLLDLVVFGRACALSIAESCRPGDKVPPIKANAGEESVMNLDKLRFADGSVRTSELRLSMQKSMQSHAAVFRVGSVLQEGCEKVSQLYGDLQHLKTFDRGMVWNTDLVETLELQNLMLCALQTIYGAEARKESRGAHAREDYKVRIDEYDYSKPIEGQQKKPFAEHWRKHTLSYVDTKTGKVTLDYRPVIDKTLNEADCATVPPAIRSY
T3 sequence (P21913 31-282): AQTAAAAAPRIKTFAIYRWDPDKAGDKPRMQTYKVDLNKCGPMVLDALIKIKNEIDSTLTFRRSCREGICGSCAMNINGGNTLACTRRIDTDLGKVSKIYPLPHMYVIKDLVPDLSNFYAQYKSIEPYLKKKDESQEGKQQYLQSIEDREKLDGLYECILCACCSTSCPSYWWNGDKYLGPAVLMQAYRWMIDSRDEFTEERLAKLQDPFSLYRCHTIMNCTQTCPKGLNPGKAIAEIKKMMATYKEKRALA
T3 sequence (Q641Z9 30-169 limits assumed): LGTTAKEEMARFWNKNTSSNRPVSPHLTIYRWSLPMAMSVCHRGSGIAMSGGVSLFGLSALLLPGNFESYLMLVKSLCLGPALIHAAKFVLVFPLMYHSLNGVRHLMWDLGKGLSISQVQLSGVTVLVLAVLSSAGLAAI
T3 sequence (Q6PCT8 57-159): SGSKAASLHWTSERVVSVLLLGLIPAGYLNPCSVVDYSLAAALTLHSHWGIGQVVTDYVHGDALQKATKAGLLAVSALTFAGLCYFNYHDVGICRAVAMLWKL
Description: Skeletal muscle mitochondria were isolated from 5-8 week old female Wistar rats (Harlan Laboratories). Minced muscle was homogenized in buffer containing bacterial protease Type VIII prior to differential centrifugation to separate mitochondria from other tissue components. Unless otherwise stated, freshly isolated muscle mitochondria were assayed in buffer containing 120 mM KCl, 5 mM HEPES, 1 mM EGTA, 0.3% (w/v) bovine serum albumin. Where indicated, CaCl2 was added to yield a final free concentration of 250 nM calcium at pH 7.0 at 37° C.
Just prior to use, plates were brought to room temperature and diluted 300-fold with standard buffer (13.3X=33.3 μM). To monitor the performance of each assay throughout screening and to provide intra-plate normalization reference points, DMSO negative controls and known mitochondrial inhibitor positive controls were included on each Master compound plate.
Total amounts of superoxide and H2O2 production were determined fluorometrically as H2O2, without distinguishing between them, in the presence of exogenous superoxide dismutase (25 units/mL final), horseradish peroxidase (1 unit/mL final), and Amplex UltraRed (25 μM final) as described (Affourtit, C. et al. (2012) Measurement of proton leak and electron leak in isolated mitochondria. Methods Mol. Biol. 810: 165-82). Just prior to use, a bulk 3.3X solution was made in standard buffer and distributed into a 2 mL deep well 96-well transfer plate.
To assess the effects of a compound on ROS production from succinate dehydrogenase/complex II (SDH), Start Solution containing 15 μM palmitoyl carnitine, 2.5 μM antimycin A and 2 μM myxothiazol was distributed into standard 96-well transfer plates. A Biomek FX workstation was programmed to dispense solutions into black 96-well assay plates. Solutions were dispensed to all assay plates in the following order: ROS Detection solution described in Example 3, Mitochondria solution described in Example 1 to a final concentration of 0.3 mg/ml, and Compound dilutions described in Example 2. Duplicate assay plates were made and each was initiated by the addition of 3.3X Start solution containing 15 μM palmitoyl carnitine, 2.5 μM antimycin A and 2 μM myxothiazol. Plates were incubated in the dark at room temperature for 30-40 minutes before acquiring endpoint fluorescence using a Victor 3V plate reader (Perkin Elmer) equipped with 550/590 nm excitation/emission filters.
The fluorescence values in each well were scaled as the percent change from the intra-plate DMSO controls with the appropriate inhibitor positive controls defined as −100%. Following initial scaling, intra-plate normalized values were subjected to Tukey's two-way median polish to remove row and column dependent positional effects (Malo et al., 2006).

[5] = molecular target: T4, glycerol-3-phosphate dehydrogenase (GPDH) (Rattus norvegicus, UniProt P35571); assay: High-throughput screen: ROS production from glycerol-3-phosphate dehydrogenase (GPDH); type: biochemical; parameters: inhibition: dose or concentration left out as unconfirmed; conditions: percent change in ROS from DMSO controls; for inhibition: Table 7
T4 construct: The activity of GPDH in intact mitochondria (0.3 mg/mL) was measured; from tissue; host or cells: rat skeletal muscle mitochondria (Wistar, Harlan Laboratories)
T4 sequence (P35571 43-727): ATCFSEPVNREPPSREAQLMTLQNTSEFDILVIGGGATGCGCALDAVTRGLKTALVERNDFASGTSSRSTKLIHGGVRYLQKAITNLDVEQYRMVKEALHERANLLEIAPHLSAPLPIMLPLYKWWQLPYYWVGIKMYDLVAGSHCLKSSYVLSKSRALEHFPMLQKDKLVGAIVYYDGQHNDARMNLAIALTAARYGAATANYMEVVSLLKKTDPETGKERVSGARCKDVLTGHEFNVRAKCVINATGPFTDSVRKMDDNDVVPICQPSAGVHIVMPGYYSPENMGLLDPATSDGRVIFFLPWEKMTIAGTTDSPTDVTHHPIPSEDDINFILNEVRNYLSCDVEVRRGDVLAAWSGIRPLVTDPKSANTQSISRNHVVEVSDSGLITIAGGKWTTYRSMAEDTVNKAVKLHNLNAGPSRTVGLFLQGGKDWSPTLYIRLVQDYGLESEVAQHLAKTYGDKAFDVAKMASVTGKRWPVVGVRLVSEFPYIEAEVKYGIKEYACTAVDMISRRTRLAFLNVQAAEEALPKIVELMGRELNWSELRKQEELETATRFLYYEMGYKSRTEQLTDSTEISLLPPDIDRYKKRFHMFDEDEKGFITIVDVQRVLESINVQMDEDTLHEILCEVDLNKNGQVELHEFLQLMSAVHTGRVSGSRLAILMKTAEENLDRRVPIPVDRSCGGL

[6] = system: mitochondrial membrane potential (ΔΨm); assay: Membrane potential (ΔΨm) counterscreen with TMRM; conditions: malate, nigericin

Compound	% Reduction in ROS production (IQ) [1] [%]	IQ ([1]; Table 7)	IQ ([1]; Table 8)	IQ ([1]; Table 9)	inhibition at 2.5 µM [2] [%]	IF ([2]; Table 8)	IF ([2]; Table 9)	inhibition at 2.5 µM ([3]; Table 7, read-out: IIIQO) [%]	IIIQO [3]	inhibition at 2.5 µM ([3]; Table 9, read-out: IIIQo) [%]	inhibition at 2.5 µM [4] [%]	SDH ([4]; Table 8)	SDH ([4]; Table 9)	inhibition [5] [%]	GPDH ([5]; Table 8)	GPDH ([5]; Table 9)	ΔΨm ([6]; Table 8, glutamate)	ΔΨm ([6]; Table 9, glutamate)
CC(C)(C)NS(=O)(=O)c1ccc2c(c1)C(=O)c1ccccc1C2=O [Compound 1]	−60.6	−60.6	−60.6	−60.6	-10	10.0	10.0	-1	1.0	-1	8.2	−8.2	−8.2	-4.1	4.1	4.1	−1.5	−1.5
CCSC1=C(C#N)C2(CCCC2)C(C#N)C(=O)N1 (stereo not drawn) [Compound 2]	−52.5	−52.5	−52.5	−52.5	7	−7.0	−7.0	-1.9	1.9	-1.9	-2.6	2.6	2.6	0.1	−0.1	−0.1	−3.4	−3.4
CC(C)(C)C1=NN(c2c(Cl)cc(Cl)cc2Cl)C(=O)C1 [Compound 3]	−52.4	−52.4	−52.4	−52.4	-0.5	0.5	0.5	-1	1.0	-1	6.8	−6.8	−6.8	0.1	−0.1	−0.1	1.2	1.2
CC(C)Cc1ccc(C(C)C(=O)Nc2ccccc2O)cc1 (stereo not drawn) [Compound 5]	−40.0	−40.0	−40.0	−40.0	-0.2	0.2	0.2	3.6	−3.6	3.6	-2.3	2.3	2.3	-0.7	0.7	0.7	−3.5	−3.5
Cc1ccc(NS(=O)(=O)c2ccc(C3CCCCC3)cc2)cc1 [Compound 6]	−38.6	−38.6	−38.6	−38.6	-3.6	3.6	3.6	3.4	−3.4	3.4	1.1	−1.1	−1.1	2.3	−2.3	−2.3	0.0	0.0
C=CCSc1nc(N)c(C#N)c(CC)c1C#N [Compound 7]	−36.5	−36.5	−36.5	−36.5	-1.3	1.3	1.3	-9.2	9.2	-9.2	-2.1	2.1	2.1	-5.6	5.6	5.6	−0.5	−0.5
